In patent US10562947B2, “Compositions and methods for preventing or treating diseases, conditions or processes characterized by aberrant fibroblast proliferation and extracellular matrix deposition” (MOERAE MATRIX, INC., priority 2011, dated 2020):
Where a SMILES comes first, the peptide text is derived from it.

Experiments:
[1] = system: human airway smooth muscle (HASM); experiment: ISO-induced relaxation of intact airway tissues in muscle bath; details: 200 μM pre-treatment for 30 min; n=4
Protocol: (§1) (A) Representative tracings of force generation. Cumulative contractile responses to CCH (B) and % relaxation to ISO doses (C). n=4; p<0.05. Inset is an immunoblot showing MK2 phosphorylation level. HASM was hung in the muscle bath and frozen. MK2 phosphorylation was determined by SDS PAGE and immunoblotting.

TNF-α = experiment: Circulating inflammatory cytokines, bleomycin treatment model; type: in vivo, mouse; details: intraperitoneal or nebulized; 24 hours after final administration
MK2 phosphorylation = MK2 phosphorylation in intact airway smooth muscle, immunoblot; parameters: species or system human; details: 200 μM pre-treatment for 30 min
Protocol: as §1

IL-6 = experiment: Circulating inflammatory cytokines, bleomycin treatment model; type: in vivo, mouse; details: intraperitoneal or nebulized; 24 hours after final administration
[2] = system: Porcine airway smooth muscle (PASM); experiment: ISO-induced relaxation of airway smooth muscle rings in muscle bath; details: 100 μM for 1 hr; CCh-contracted rings; n=3
Source text: Porcine airway smooth muscle (PASM) rings were isolated from second generation bronchi, cartilage was peeled off and then hung in a muscle bath and equilibrated in Kreb's buffer for 3 hrs. […] ISO is a β-adrenergic agonist that relaxes almost all varieties of […] when the tone is high, but its action is most pronounced on bronchial and gastrointestinal smooth muscle. It prevents or relieves bronchoconstrution. Its effect in asthma maybe due in part to an additional action to inhibit antigen-induced release of histamine and other mediators of inflammation; this action is shared by β2-receptor-selective stimulants. Goodman & Gilman's The Pharmacological Basis of Therapeutics, Joel G. Hardman and Lee E. Limberd, Eds., 10th Ed. […] Force was normalized to the weight and length of the tissue and converted to stress and relaxation induced was calculated.

phospho-Thr^334-MAPKAPK2 = experiment: Activated MK2 immunostaining of lung sections, bleomycin treatment model; type: in vivo, mouse; details: 50 μg/kg daily IP or NEB, day 14 to 28
Source text: Briefly, C57-BL/6 mice were subjected to bleomycin injury at day 0. […] Formalin-fixed lung tissue sections were immunostained against phospho-Thr^334 MK2. Control staining was with biotinylated secondary IgG antibody. Streptavidin-conjugated horseradish peroxidase was used with 3,3′-diaminobenzidene as substrate and nuclei was counterstained with hematoxylin.

α-SMA = α-SMA immunostaining of lung sections, bleomycin treatment model; type: in vivo, mouse; details: 50 μg/kg/day IP or NEB, day 14 to 28; vs untreated bleomycin-injured lungs
Source text: C57-BL/6 mice were subjected to bleomycin injury at day 0. […] Formalin-fixed lung tissue sections were immunostained against α-SMA. Control staining was with biotinylated secondary IgG antibody. Streptavidin-conjugated horseradish peroxidase was used with 3,3′-diaminobenzidene as substrate and nuclei was counterstained with hematoxylin. Original magnifications: 20×

Plk1(h) = target: T1, Plk1(h) (Homo sapiens, UniProt P53350); experiment: Kinase Profiling Assay; type: biochemical; details: 100 μM peptide
T1 construct: purchased Millipore (IC50 Profiler Express service)
Method in brief: (§2)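 Read-out is kinase activity, measured twice per kinase, across 266 human kinases exposed to MK2 inhibitory peptides in a specificity screen.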

CK1γ1(h) = CK1γ1(h) (Homo sapiens, UniProt Q9HCP0); experiment: Kinase Profiling Assay; type: biochemical; details: 100 μM peptide
Method in brief: as §2

CLK2(h) = CLK2(h) (Homo sapiens, UniProt P49760); experiment: Kinase Profiling Assay; type: biochemical; details: 100 μM peptide
Method in brief: as §2

c-RAF(h) = c-RAF(h) (Homo sapiens, UniProt P04049); experiment: Kinase Profiling Assay; type: biochemical; details: 100 μM peptide
Method in brief: as §2

PAK6(h) = PAK6(h) (Homo sapiens, UniProt Q9NQU5); experiment: Kinase Profiling Assay; type: biochemical; details: 100 μM peptide
Method in brief: as §2

CK1γ2(h) = CK1γ2(h) (Homo sapiens, UniProt P78368); experiment: Kinase Profiling Assay; type: biochemical; details: 100 μM peptide
Method in brief: as §2

CK1γ2(h), sequence (P78368 whole entry): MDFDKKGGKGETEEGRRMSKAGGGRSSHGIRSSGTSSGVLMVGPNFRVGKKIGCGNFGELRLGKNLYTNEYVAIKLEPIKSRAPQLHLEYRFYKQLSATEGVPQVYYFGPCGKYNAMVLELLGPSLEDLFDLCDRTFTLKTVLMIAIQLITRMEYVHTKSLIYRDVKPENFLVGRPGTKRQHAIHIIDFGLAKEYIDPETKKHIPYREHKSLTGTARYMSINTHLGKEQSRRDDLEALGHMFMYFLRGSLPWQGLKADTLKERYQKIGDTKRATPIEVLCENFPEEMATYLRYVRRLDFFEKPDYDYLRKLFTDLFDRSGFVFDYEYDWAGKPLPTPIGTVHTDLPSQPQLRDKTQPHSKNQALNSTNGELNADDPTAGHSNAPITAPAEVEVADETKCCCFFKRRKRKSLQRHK
CLK2(h), sequence (P49760 whole entry): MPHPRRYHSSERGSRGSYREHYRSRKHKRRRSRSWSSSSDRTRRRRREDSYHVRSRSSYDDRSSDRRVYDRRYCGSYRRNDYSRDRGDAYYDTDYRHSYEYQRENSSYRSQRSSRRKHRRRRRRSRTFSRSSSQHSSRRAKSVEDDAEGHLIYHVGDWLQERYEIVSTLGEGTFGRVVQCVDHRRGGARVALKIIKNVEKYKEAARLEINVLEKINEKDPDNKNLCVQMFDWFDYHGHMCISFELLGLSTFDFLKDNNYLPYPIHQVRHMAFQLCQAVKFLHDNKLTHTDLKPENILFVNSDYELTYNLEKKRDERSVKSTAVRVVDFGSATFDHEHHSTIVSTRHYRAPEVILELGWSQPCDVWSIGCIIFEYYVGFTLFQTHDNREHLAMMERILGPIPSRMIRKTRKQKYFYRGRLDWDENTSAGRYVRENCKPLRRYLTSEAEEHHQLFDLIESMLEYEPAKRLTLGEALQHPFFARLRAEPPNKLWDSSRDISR
T1 sequence (P53350 whole entry): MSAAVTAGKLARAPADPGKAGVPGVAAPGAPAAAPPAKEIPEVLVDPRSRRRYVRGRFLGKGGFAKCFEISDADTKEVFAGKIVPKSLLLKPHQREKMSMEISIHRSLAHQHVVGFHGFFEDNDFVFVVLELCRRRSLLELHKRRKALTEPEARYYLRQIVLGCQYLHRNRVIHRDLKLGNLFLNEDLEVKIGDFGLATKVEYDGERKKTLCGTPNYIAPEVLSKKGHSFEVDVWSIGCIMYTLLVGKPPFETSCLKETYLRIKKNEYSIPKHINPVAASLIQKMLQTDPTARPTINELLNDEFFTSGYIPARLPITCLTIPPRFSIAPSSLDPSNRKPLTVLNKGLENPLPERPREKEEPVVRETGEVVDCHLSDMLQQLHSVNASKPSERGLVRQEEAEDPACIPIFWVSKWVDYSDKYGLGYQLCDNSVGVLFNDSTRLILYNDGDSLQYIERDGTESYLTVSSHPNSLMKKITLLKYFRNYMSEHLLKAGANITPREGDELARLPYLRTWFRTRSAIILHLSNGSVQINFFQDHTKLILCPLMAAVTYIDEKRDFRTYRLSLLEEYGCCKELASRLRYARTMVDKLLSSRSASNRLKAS
CK1γ1(h), sequence (Q9HCP0 whole entry): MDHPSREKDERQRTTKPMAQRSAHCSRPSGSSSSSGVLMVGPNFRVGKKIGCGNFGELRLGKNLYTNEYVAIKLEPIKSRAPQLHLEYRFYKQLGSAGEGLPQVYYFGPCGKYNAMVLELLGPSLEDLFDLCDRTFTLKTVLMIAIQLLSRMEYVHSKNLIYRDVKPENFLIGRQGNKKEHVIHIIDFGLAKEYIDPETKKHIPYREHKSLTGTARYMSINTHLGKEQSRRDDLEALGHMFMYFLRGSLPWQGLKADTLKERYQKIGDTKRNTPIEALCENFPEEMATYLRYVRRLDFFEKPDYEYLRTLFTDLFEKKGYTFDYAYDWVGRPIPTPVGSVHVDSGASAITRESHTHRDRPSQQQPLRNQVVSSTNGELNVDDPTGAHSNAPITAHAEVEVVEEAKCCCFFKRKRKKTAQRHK
PAK6(h), sequence (Q9NQU5 whole entry): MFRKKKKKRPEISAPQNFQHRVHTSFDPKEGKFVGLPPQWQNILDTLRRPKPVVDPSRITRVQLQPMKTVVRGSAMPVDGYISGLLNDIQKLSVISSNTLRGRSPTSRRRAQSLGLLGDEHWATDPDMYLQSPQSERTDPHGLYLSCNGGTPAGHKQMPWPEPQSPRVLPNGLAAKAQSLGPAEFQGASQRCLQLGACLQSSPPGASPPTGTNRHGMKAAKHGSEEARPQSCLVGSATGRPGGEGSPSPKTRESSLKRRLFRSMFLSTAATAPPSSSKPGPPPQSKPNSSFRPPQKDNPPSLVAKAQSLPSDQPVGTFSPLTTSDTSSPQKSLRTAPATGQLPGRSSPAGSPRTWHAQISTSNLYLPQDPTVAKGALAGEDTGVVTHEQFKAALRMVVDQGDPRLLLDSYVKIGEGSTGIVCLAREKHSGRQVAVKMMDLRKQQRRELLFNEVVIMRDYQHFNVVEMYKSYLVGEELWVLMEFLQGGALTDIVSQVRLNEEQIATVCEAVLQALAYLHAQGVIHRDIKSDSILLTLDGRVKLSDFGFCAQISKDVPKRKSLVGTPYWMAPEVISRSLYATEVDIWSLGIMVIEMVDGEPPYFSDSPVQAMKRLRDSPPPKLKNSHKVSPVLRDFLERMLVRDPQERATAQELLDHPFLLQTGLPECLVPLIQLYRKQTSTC

**Q.** What does the source list for `CC(C)C[C@H](NC(=O)[C@H](C)NC(=O)[C@H](CCCCN)NC(=O)[C@H](C)NC(=O)[C@H](CCCNC(=N)N)NC(=O)[C@H](C)NC(=O)[C@H](CCC(N)=O)NC(=O)[C@H](CCCNC(=N)N)NC(=O)[C@H](C)NC(=O)[C@H](C)NC(=O)[C@H](C)NC(=O)[C@H](CCCNC(=N)N)NC(=O)[C@H](C)NC(=O)[C@@H](N)Cc1ccc(O)cc1)C(=O)N[C@@H](C)C(=O)N[C@@H](CCCNC(=N)N)C(=O)N[C@@H](CCC(N)=O)C(=O)N[C@@H](CC(C)C)C(=O)NCC(=O)N[C@H](C(=O)N[C@@H](C)C(=O)N[C@@H](C)C(=O)O)C(C)C` [MMI-0100] (H-YARAAARQARAKALARQLGVAA-OH; N-terminus and C-terminus assumed)?
**A.** ISO-induced relaxation [1]: enhances ISO-induced relaxation; plasma level of TNF-α (TNF-α): significantly reduced; MK2 phosphorylation level (MK2 phosphorylation): reduced MK2 phosphorylation; plasma level of IL-6 (IL-6): significantly reduced; enhancement of ISO induced relaxation [2]: 13%; activated MK2 (phospho-Thr^334-MAPKAPK2) staining (phospho-Thr^334-MAPKAPK2): decreased phospho-Thr^334-MAPKAPK2 staining; level of α-SMA in lungs (α-SMA): significantly attenuated

**Q.** What does the source list for “YARAAARQARAKALNRQLGVA (Mammalian) [MMI-0200]”?
**A.** Plk1(h) % activity (Plk1(h)): 128%; CK1γ1(h) % activity (CK1γ1(h)): 98%; CLK2(h) % activity (CLK2(h)): 97%

**Q.** Which “c-RAF(h) % activity” value (c-RAF(h)) does the source give for “HRRIKAWLKKIKALARQLGVAA (Mammalian) [MMI-0500]” here?
**A.** 19%

**Q.** How did the “PAK6(h) % activity” value (PAK6(h)) turn out when KAFAKLAARLYRKALARQLGVAA [MMI-0400] was run?
**A.** 100%

**Q.** FAKLAARLYRKALARQLGVAA [MMI-0300] was tested. Which “CK1γ2(h) % activity” value (CK1γ2(h)) did it give?
**A.** 123%
